Measurements: patent US10640545B2 (THE GOVERNORS OF THE UNIVERSITY OF ALBERTA, priority 2017, dated 2020)
*1 amine or outer side, *2 acyl side, *3 side chain or, on linkers, in order; H or OH if unused. Where a SMILES comes first, the peptide text is derived from it. [ ]: non-standard residue; d: D form. Phe(4-Br) = N[C@@H](Cc1ccc(Br)cc1)C(=O)O; X1 = N=C(N)NCCCN(N[*:1])C(=O)[*:2]; azaLeu = CC(C)CN(N[*:1])C(=O)[*:2]; Nle = CCCC[C@H](N)C(=O)O; Aib = CC(C)(N)C(=O)O

How the values were obtained:
in vitro = details: human, plasma
[1] = target: T1, wild-type rat apelin receptor (Rattus norvegicus, UniProt Q9JHG3); assay: Radioligand binding, displacement of [125I]-pyr-1-apelin-13 on CHO cell membranes; details: for receptor binding affinity (in words): rat apelin receptor
T1 construct: expressed in transfected cells
T1 sequence (Q9JHG3 1-377): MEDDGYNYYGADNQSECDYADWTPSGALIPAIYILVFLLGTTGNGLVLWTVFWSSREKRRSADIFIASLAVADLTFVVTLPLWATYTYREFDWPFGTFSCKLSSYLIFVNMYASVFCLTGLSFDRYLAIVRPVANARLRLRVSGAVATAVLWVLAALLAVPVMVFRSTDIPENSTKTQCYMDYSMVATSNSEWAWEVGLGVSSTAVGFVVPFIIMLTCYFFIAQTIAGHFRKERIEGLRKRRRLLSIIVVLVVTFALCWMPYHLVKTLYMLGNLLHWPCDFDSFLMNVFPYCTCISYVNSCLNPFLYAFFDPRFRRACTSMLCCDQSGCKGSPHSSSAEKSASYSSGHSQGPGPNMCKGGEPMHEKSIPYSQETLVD
Protocol: This experiment evaluated the ability of peptides of the present embodiments to bind to the wild-type rat apelin receptor, in order to examine the impact of synthetic modification within the critical RPRL motif of the apelin peptides.
Membrane preparations from CHO cells stably expressing the wild-type rat apelin receptor-EGFP were prepared as previously described (Gerbier et al., New Structural Insights Into The Apelin Receptor: Identification Of Key Residues For Apelin binding; FASEB J. 2015, 29, 314-322; Iturrioz et. al., Development Of Original Metabolically-Stable Apelin-17 Peptides With Diuretic And Cardiovascular Effects; FASEB J. 2017, 31, 687-700.) Crude membrane preparations (1 μg total mass of membranes/assay) were incubated for 3 h at 20° C. with 0.2 nM [^125I]-pyr-1-apelin-13 (monoiodinated on Lys^8 with Bolton-Hunter reagent, Perkin Elmer, Wellesley, Mass., USA) in binding buffer (50 mM HEPES, 5 mM MgCl2 1149 pH 7.5, BSA 1%) alone or in presence of the different compounds at various concentrations. The reaction was stopped by adding 4 mL of cold binding buffer, filtered on Whatman GF/C filters and washed with 5 mL of cold binding buffer. Radioactivity was then counted using a Wizard 1470 Wallac gamma counter (Perkin Elmer, Turku, Finland). Binding experiment data were analyzed with Graph Pad Prism.

anesthetized mice = assay: Blood pressure assay in anesthetized mice; format: in vivo; details: 1.4 μM/kg body weight injected, SBP, DBP, MABP
Protocol: Synthetic peptides 8-19 were tested for blood pressure lowering abilities in anesthetized mice. Apelin peptides were injected through […], monitoring blood pressure (BP) and heart rate (HR) over 60 minutes.
Mice were anaesthetized with 1.5% isoflurane/oxygen, and body temperature was monitored and maintained at 36° C. by a heating pad. The aorta was cannulated via the right carotid artery using a PV loop catheter (Model 1.2F from Scisense, Transonic) in order to continuously record arterial blood pressure and heart rate (LabScribe 2.0, Scisense). […] Results are reported as systolic blood pressure (SBP), diastolic blood pressure (DBP), mean arterial blood pressure (MABP) and heart rate (HR).
Apelin peptides 11, 56-59 as well as the KLKB1-cleavage fragments 54 and 55 were tested for blood pressure lowering abilities in anesthetized mice.
Mice were anesthetized with 1.5% isoflurane/oxygen, and body temperature was monitored and maintained at 36° C. by a heating pad. The aorta was cannulated via the right carotid artery using a PV loop catheter (model 1.2F from Scisense, Transonic) in order to continuously record arterial blood pressure and heart rate (LabScribe 2.0, Scisense). Compounds 11, and 54-59 or 55-59 (1.4 μM/kg body weight) or the same volume of saline was injected via the right jugular vein. Results are reported as systolic blood pressure (SBP), diastolic blood pressure (DBP), mean arterial blood pressure (MABP), and heart rate (HR) shown in FIGS. 15A-D.
Apelin peptides were delivered systemically via the right internal jugular vein while blood pressure (BP) and heart rate (HR) were continuously monitored in the aorta cannulated via the right carotid artery. All N-terminally extended apelin peptides, except 58, show pronounced and time-stable blood pressure lowering effects (FIGS. 15a-d). […] This correlates with the results obtained from the Ca^2+ mobilization assay.

isolated rat hearts = assay: Langendorff isolated heart, ischemia-reperfusion injury; details: ex vivo heart, 30 min ischemia; for ability to rescue the heart from ischemic reperfusion injury: peptide at start of reperfusion for 10 min at 1 pM; for max/min dP/dt, LVDP and RPP compared to native isoform 2: reperfusion
Protocol: The ex vivo heart was assessed for a variety of parameters (heart rate (HR); left ventricle developed pressure (LVDP); maximum derivative of change in systolic pressure over time (max dP/dt); minimum derivative of change in diastolic pressure over time (min dP/dt); and rate-pressure product (RPP)) indicative of general heart function and performance (FIG. 11).
Langendorff heart perfusion and ischemia-reperfusion injury were prepared and cardiac function was measured. Mice were heparinized and anaesthetized with 1.5-2% isoflurane inhalation. The heart was excised, mounted on a Langendorff system, and perfused at a consistent pressure of 80 mmHg with modified Krebs-Henseleit solution (116 mM NaCl, 3.2 mM KCl, 2.0 mM CaCl2), 1.2 mM MgSO4, 25 mM NaHCO3, 1.2 mM KH2PO4, 11 mM glucose, 0.5 mM EDTA and 2 mM pyruvate), which was kept at 37° C. and continuously oxygenated with 95% O2 and 5% CO2 which maintained the perfusion buffer at pH 7.4. After stabilization and 10 min baseline recording, global ischemia was induced for 30 min followed by 40 min of reperfusion. Apelin 17 (2) or apelin peptides (11, 17, 18, or 19) were given at the start of reperfusion for 10 min at a concentration of 1 pM. Left ventricular functions were obtained continuously by PowerLab system (ADInstruments, Australia). Data was reported as mean value of every 5 min. Left ventricular functions were reported as: Left Ventricular Developed Pressure (LVDP); Heart rate (HR); maximum derivative of change in systolic pressure over time (max dP/dt); minimum derivative of change in diastolic pressure over time (min dP/dt); and Rate Pressure Product (RPP).

NEP = NEP (Homo sapiens, UniProt P08473); assay: Neprilysin inhibition assay (degradation of 1 after preincubation with peptide); format: biochemical; design: purchased Sino Biological; details: preincubation of NEP with equimolar peptide
NEP, sequence (P08473 whole entry): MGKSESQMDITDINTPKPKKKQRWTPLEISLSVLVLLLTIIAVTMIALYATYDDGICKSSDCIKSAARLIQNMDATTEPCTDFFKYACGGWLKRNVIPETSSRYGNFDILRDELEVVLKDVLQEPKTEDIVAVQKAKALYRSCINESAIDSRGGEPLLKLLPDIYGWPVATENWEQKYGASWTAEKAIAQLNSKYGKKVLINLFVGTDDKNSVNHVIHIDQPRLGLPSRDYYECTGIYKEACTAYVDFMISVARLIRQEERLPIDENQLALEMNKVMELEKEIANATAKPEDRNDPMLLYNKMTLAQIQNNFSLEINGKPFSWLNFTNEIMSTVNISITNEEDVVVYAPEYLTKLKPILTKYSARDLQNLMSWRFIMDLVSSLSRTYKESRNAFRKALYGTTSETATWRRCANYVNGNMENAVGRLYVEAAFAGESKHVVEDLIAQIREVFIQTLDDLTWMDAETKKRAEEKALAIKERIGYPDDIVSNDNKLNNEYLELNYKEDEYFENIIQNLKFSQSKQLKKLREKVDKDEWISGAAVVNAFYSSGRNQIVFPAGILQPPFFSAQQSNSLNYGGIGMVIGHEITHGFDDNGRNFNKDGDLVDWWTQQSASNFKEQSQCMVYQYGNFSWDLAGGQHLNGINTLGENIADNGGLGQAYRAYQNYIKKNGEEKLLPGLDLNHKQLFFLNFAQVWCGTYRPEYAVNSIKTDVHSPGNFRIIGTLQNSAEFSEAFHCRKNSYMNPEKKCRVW
Protocol: This experiment investigates the ability of synthetic peptides 8-19 to inhibit the inherent proteolytic activity of NEP.
Assays were performed in duplicate (n=2) for each time point.

Row | SMILES | remaining at 0.5 h, 80 µM (in vitro) [%] | remaining at 1 h, 80 µM (in vitro) [%] | Ki ([1]; displacement of [125I]-pyr-1-apelin-13 (0.2 nM), CHO membranes, rat apelin receptor-EGFP, means ± SE, read-out: Affinity Ki) [nM] | receptor binding affinity (in words) [1] | blood pressure lowering (hypotensive) effect (anesthetized mice) | ability to rescue the heart from ischemic reperfusion injury (isolated rat hearts) | max/min dP/dt, LVDP and RPP compared to native isoform 2 (isolated rat hearts) | inhibition of the proteolytic activity of NEP (NEP)
1 | CCCC[C@H](NC(=O)[C@@H]1CCCN1C(=O)CNC(=O)[C@H](CCCCN)NC(=O)[C@H](Cc1c[nH]cn1)NC(=O)[C@H](CO)NC(=O)[C@H](CC(C)C)NC(=O)N(CCCNC(=N)N)NC(=O)[C@@H]1CCCN1C(=O)[C@H](CCCNC(=N)N)NC(=O)[C@H](CCC(N)=O)NC(=O)[C@H](CCCNC(=N)N)NC(=O)[C@H](CCCNC(=N)N)NC(=O)[C@H](Cc1ccccc1)NC(=O)[C@@H](N)CCCCN)C(=O)NC(C)(C)C(=O)N[C@@H](Cc1ccc(Br)cc1)C(=O)O [Peptide 17, Lys-Phe-Arg-Arg-Gln-Arg-Pro-azaArg-Leu-Ser-His-Lys-Gly-Pro-Nle-Aib-paraBrPhe] (H-KFRRQRP[X1]LSHKGP[Nle][Aib][Phe(4-Br)]-OH; N-terminus and C-terminus assumed) | 96 ± 6 | 94 ± 3 | 0.14 ± 0.009 | sub-nanomolar receptor affinities | potent hypotensive activity that rivaled or bested that of native 2 or A2 variant 5 | equivalent ability to rescue the heart from ischemic reperfusion injury compared to native isoform 2 | behaving very analogously to 2 | no ability to inhibit the inherent activity of NEP
2 | CCCC[C@H](NC(=O)[C@@H]1CCCN1C(=O)CNC(=O)[C@H](CCCCN)NC(=O)[C@H](Cc1c[nH]cn1)NC(=O)[C@H](CO)NC(=O)N(CC(C)C)NC(=O)[C@H](CCCNC(=N)N)NC(=O)[C@@H]1CCCN1C(=O)[C@H](CCCNC(=N)N)NC(=O)[C@H](CCC(N)=O)NC(=O)[C@H](CCCNC(=N)N)NC(=O)[C@H](CCCNC(=N)N)NC(=O)[C@H](Cc1ccccc1)NC(=O)[C@@H](N)CCCCN)C(=O)NC(C)(C)C(=O)N[C@@H](Cc1ccc(Br)cc1)C(=O)O [Peptide 19] (H-KFRRQRPR[azaLeu]SHKGP[Nle][Aib][Phe(4-Br)]-OH; N-terminus and C-terminus assumed) | 82 ± 1 | 68 ± 4 | – | sub-nanomolar receptor affinities | potent hypotensive activity that rivaled or bested that of native 2 or A2 variant 5 | equivalent ability to rescue the heart from ischemic reperfusion injury compared to native isoform 2 | slight improvement over the native isoform | no ability to inhibit the inherent activity of NEP
